One may read the IC50 as the concentration at which inhibition is half-maximal.

This note sets out measurements from patent publication US20250136577A1, “HETEROCYCLIC DERIVATIVES AS MALT1 INHIBITORS” (C4X Discovery Limited, priority 2022, published 2025).

The test system of assay [1] is IL-2 release from stimulated Jurkat cells. Put plainly: Human IL-2 Release Phenotypic Assay (Assay 3). Type of assay: cell-based. To be noted: Jurkat cells (clone E6-1), 200 ng/ml PMA + 300 ng/ml ionomycin, IL-2 in supernatant by ELISA. How it is done: Human IL-2 Release Phenotypic Assay (Assay 3)
This assay measured the inhibition by MALT1 inhibitors of the IL-2 release from stimulated Jurkat cells, a human immortalized T lymphocyte cell line. IL-2 production from Jurkat cells is regulated by activation of NFκB signalling, which is in turn regulated by MALT1 protease activity.
Jurkat cells (clone E6-1, ATCC) were cultured in RPMI1640 supplemented with 10% (v/v) FBS and 1% (v/v) penicillin/streptomycin (100× liquid stocks). Cells were seeded in 96-well white tissue culture-treated plates (Perkin Elmer) at 50 000 cells/well and incubated overnight at 37° C., 5% CO2. Test compounds in DMSO at half-log dilutions were added to the cells and incubated for 30 mins. Final DMSO concentration was 0.5%. Cells were then stimulated with 200 ng/ml PMA+300 ng/ml ionomycin and incubated for 48 hours. IL-2 present in the supernatant was then measured by ELISA according to the kit instructions (ELISA MAX Deluxe Set Human IL-2, BioLegend). % inhibition was calculated for each well, using 30 μM of the commercially available MALT1 inhibitor, MLT-748, for 100% inhibition controls and no compound for 0% inhibition controls. IC50 values were calculated using GraphPad Prism using 4-parameter non-linear regression curve fit.
A general note: ELISA stands for enzyme-linked immunosorbent assay.

The target of another assay is FL hMALT1 enzyme (Homo sapiens (Human), UniProt Q9UDY8). The assay can be described thus: MALT1 Protease Assay 2 (Assay 2), higher sensitivity, cleavage of fluorogenic tetrapeptide substrate. To be noted: FL hMALT1 1-10 nM, Ac-LVSR-AMC 100 μM, 0.7 M sodium citrate, 30 min preincubation, 60 min read. Type of assay: biochemical. As for the experimental part: MALT1 Protease Assay 2 (Assay 2)
FL hMALT1 enzyme, sequence (Q9UDY8 whole entry): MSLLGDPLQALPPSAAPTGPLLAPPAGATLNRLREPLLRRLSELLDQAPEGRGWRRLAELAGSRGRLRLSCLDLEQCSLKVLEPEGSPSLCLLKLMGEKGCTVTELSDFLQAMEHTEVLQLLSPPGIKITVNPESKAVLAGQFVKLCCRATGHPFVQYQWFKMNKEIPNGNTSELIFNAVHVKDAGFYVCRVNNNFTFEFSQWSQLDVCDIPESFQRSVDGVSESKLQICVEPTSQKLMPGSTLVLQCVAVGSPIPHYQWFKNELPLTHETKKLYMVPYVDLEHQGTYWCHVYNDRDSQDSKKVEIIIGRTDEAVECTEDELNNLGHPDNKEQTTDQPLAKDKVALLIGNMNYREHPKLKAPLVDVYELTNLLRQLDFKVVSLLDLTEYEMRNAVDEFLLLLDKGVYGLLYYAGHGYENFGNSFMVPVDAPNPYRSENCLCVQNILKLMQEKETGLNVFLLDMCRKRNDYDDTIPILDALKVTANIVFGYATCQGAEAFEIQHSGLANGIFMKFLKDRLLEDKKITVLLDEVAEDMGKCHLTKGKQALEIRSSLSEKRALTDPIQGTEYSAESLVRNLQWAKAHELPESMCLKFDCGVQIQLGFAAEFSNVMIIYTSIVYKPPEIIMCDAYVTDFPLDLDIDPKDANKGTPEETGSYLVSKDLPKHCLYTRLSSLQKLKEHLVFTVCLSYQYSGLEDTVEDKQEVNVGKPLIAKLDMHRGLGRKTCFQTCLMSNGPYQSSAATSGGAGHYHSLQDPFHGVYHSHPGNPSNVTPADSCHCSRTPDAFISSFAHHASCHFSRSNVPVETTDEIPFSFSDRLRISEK
(§1) MALT1 protease activity was assessed in vitro by measuring the cleavage of a fluorogenic tetrapeptide substrate.
For a higher sensitivity assay, commercially available FL hMALT1 enzyme (Abcam, 1-10 nM) was incubated with substrate (Ac-LVSR-AMC, 100 μM) in reaction buffer comprising 50 mM HEPES (pH7.0), 25 mM KCl, 0.1% (v/v) CHAPS, 1 mM TCEP and 0.7 M sodium citrate.
(§2) Test compounds dissolved in DMSO were dispensed into assay plates (384-well, black, shallow ProxiPlates). 7 μl enzyme solution was added and incubated at room temperature for 30 minutes to allow compound binding to occur. 2 μl substrate solution was then added and the fluorescence (excitation 360 nm, emission 460 nm) read every 15 minutes using a suitable plate reader. Final assay DMSO concentration was 1%. Linearity over 60 minutes was confirmed, and assay signal was calculated by subtracting raw counts at time 0 from those at 60 minutes. % inhibition was calculated for each well, using no enzyme for 100% inhibition controls and no compound for 0% inhibition controls. IC50 values were calculated using GraphPad Prism using a 4-parameter non-linear regression curve fit.

Assay [2] has as its target MALT1-GS-Ub (6-His-hMALT-1 residues 339-715 fused to ubiquitin) (Homo sapiens (Human), UniProt Q9UDY8). The assay can be described thus: MALT1 Protease Assay 1 (Assay 1), cleavage of fluorogenic tetrapeptide substrate. To be noted: MALT1-GS-Ub 300-600 nM, Ac-LVSR-AMC 100 μM, 30 min preincubation, 60 min read. The assay is classed as biochemical. How it is done: MALT1 Protease Assay 1 (Assay 1)
as §1
A protein (MALT1-GS-Ub) comprising 6-His-hMALT-1 (residues 339-715), fused to ubiquitin with an 8× GGS linker, was expressed in E. coli, and purified using chitin resin to remove contaminants followed by affinity chromatography purification and size-exclusion chromatography, according to standard protocols.
Briefly, MALT1-GS-Ub (300-600 nM) was incubated with substrate (Ac-LVSR-AMC, 100 μM) in reaction buffer comprising 50 mM HEPES (pH7.0), 25 mM KCl, 0.1% (v/v) CHAPS and 1 mM TCEP.
as §2

MALT1-GS-Ub (6-His-hMALT-1 residues 339-715 fused to ubiquitin), sequence (Q9UDY8 other isoform, or with tags, fused parts or gaps): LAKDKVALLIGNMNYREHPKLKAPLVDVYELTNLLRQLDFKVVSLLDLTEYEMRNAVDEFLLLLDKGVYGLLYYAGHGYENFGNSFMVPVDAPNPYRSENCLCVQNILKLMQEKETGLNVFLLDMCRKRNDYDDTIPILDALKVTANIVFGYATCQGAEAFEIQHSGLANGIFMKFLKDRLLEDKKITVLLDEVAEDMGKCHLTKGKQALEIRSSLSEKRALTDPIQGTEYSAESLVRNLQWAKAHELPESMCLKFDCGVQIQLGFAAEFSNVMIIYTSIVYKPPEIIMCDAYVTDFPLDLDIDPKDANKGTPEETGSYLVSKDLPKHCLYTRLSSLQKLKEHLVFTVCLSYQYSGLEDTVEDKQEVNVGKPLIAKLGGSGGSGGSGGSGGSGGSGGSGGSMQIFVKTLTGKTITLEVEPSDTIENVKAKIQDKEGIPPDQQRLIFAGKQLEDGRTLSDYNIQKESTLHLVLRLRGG

In the case of `O=C(Nc1cnc(-n2nccn2)c(Cl)c1)N1CC(C(F)(F)F)Oc2c(Br)cncc21` (single isomer, unassigned) [Example 40, 8-Bromo-N-(5-chloro-6-(2H-1,2,3-triazol-2-yl)pyridin-3-yl)-2-(trifluoromethyl)-2,3-dihydro-4H-pyrido[4,3-b][1,4]oxazine-4-carboxamide], the IC50 was 300 nM in assay [1] (Homo sapiens, Jurkat, 48 h); 60 nM against FL hMALT1 enzyme; 340 nM in assay [2].

Take `Cc1ncc2c(c1Br)OC(C(F)(F)F)CN2C(=O)Nc1cnc(-n2nccn2)c(Cl)c1` (single isomer, unassigned) [Example 43, 8-Bromo-N-(5-chloro-6-(2H-1,2,3-triazol-2-yl)pyridin-3-yl)-7-methyl-2-(trifluoromethyl)-2,3-dihydro-4H-pyrido[4,3-b][1,4]oxazine-4-carboxamide]: the IC50 amounted to 1400 nM in assay [1] (Homo sapiens, Jurkat, 48 h) and 60 nM on FL hMALT1 enzyme.

Consider `CCC1CN(C(=O)Nc2cnc(-n3nccn3)c(Cl)c2)c2cncc(Br)c2O1` (single isomer, unassigned) [Example 46, 8-Bromo-N-(5-chloro-6-(2H-1,2,3-triazol-2-yl)pyridin-3-yl)-2-ethyl-2,3-dihydro-4H-pyrido[4,3-b][1,4]oxazine-4-carboxamide], for which the IC50 amounted to 740 nM in assay [1] (48 hours) and 30 nM on FL hMALT1 enzyme.

As to `CCC1CN(C(=O)Nc2cnc(-n3nccn3)c(Cl)c2)c2cncc(Br)c2O1` (single isomer, unassigned) [Example 47, 8-Bromo-N-(5-chloro-6-(2H-1,2,3-triazol-2-yl)pyridin-3-yl)-2-ethyl-2,3-dihydro-4H-pyrido[4,3-b][1,4]oxazine-4-carboxamide], the IC50 in assay [1] (48 hours) is more than 10000 nM; on FL hMALT1 enzyme, 130 nM.

For `CC(C)C1CN(C(=O)Nc2cnc(-n3nccn3)c(Cl)c2)c2cncc(Br)c2O1` (single isomer, unassigned) [Example 48, 8-Bromo-N-(5-chloro-6-(2H-1,2,3-triazol-2-yl)pyridin-3-yl)-2-isopropyl-2,3-dihydro-4H-pyrido[4,3-b][1,4]oxazine-4-carboxamide], the IC50 in assay [1] (48 hours) was more than 10000 nM; against FL hMALT1 enzyme, 80 nM.

For the compound `CC(C)C1CN(C(=O)Nc2cnc(-n3nccn3)c(Cl)c2)c2cncc(Br)c2O1` (single isomer, unassigned) [Example 49, 8-Bromo-N-(5-chloro-6-(2H-1,2,3-triazol-2-yl)pyridin-3-yl)-2-isopropyl-2,3-dihydro-4H-pyrido[4,3-b][1,4]oxazine-4-carboxamide], the IC50 in assay [1] (48 hours) was 4460 nM; against FL hMALT1 enzyme, 120 nM.

As to `Cc1ncc2c(c1C#N)OC(C(F)(F)F)CN2C(=O)Nc1cnc(-n2nccn2)c(Cl)c1` (single isomer, unassigned) [Example 53, N-(5-Chloro-6-(2H-1,2,3-triazol-2-yl)pyridin-3-yl)-8-cyano-7-methyl-2-(trifluoromethyl)-2,3-dihydro-4H-pyrido[4,3-b][1,4]oxazine-4-carboxamide], the IC50 in assay [1] (Homo sapiens, Jurkat, 48 h) worked out at 390 nM; against FL hMALT1 enzyme, 60 nM.

For `N#Cc1cncc2c1OC(C(F)(F)F)CN2C(=O)Nc1cnc(-n2nccn2)c(Cl)c1` (single isomer, unassigned) [Example 55, N-(5-Chloro-6-(2H-1,2,3-triazol-2-yl)pyridin-3-yl)-8-cyano-2-(trifluoromethyl)-2,3-dihydro-4H-pyrido[4,3-b][1,4]oxazine-4-carboxamide], the IC50 is 350 nM in assay [1] (Homo sapiens, Jurkat, 48 h) and 60 nM against FL hMALT1 enzyme.

On to `Cc1ncc2c(c1C#N)OC(C(F)(F)F)CN2C(=O)Nc1cnc(OC(F)F)c(Cl)c1` (single isomer, unassigned) [Example 61, N-(5-Chloro-6-(difluoromethoxy)pyridin-3-yl)-8-cyano-7-methyl-2-(trifluoromethyl)-2,3-dihydro-4H-pyrido[4,3-b][1,4]oxazine-4-carboxamide], for which the concentration for half-maximal inhibition (IC50) in assay [1] (Homo sapiens, Jurkat, 48 h) is 286 nM; on FL hMALT1 enzyme, 21 nM.

Regarding `N#CC1CN(C(=O)Nc2cnc(-n3nccn3)c(C(F)(F)F)c2)c2cccc(Br)c2O1` (stereo not drawn) [Example 6, N-(6-(2H-1,2,3-Triazol-2-yl)-5-(trifluoromethyl)pyridin-3-yl)-8-bromo-2-cyano-2,3-dihydro-4H-benzo[b][1,4]oxazine-4-carboxamide], the IC50 in assay [1] (Homo sapiens, Jurkat, 48 h) came to 2100 nM; against FL hMALT1 enzyme it was 100 nM; in assay [2] it was 700 nM.

As to `CC1(C#N)CN(C(=O)Nc2cnc(-n3nccn3)c(Cl)c2)c2cccc(Br)c2O1` (stereo not drawn) [Example 18, 8-Bromo-N-(5-chloro-6-(2H-1,2,3-triazol-2-yl)pyridin-3-yl)-2-cyano-2-methyl-2,3-dihydro-4H-benzo[b][1,4]oxazine-4-carboxamide], the IC50 in assay [1] (Homo sapiens, Jurkat, 48 h) worked out at 1900 nM; on FL hMALT1 enzyme it was 190 nM; in assay [2], 850 nM.

Consider `CC1(C)CN(C(=O)Nc2cnc(-n3nccn3)c(Cl)c2)c2cncc(Br)c2O1` [Example 19, 8-Bromo-N-(5-chloro-6-(2H-1,2,3-triazol-2-yl)pyridin-3-yl)-2,2-dimethyl-2,3-dihydro-4H-pyrido[4,3-b][1,4]oxazine-4-carboxamide], for which the IC50 in assay [1] (Homo sapiens, Jurkat, 48 h) worked out at 1100 nM; at FL hMALT1 enzyme, 150 nM; in assay [2], 730 nM.

Take `O=C(Nc1cnc(-n2nccn2)c(Cl)c1)N1CCOc2c(Br)cncc21` [Example 21, 8-Bromo-N-(5-chloro-6-(2H-1,2,3-triazol-2-yl)pyridin-3-yl)-2,3-dihydro-4H-pyrido[4,3-b][1,4]oxazine-4-carboxamide]: the IC50 was more than 10000 nM in assay [1] (Homo sapiens, Jurkat, 48 h); more than 3000 nM at FL hMALT1 enzyme; 2300 nM in assay [2].

In the case of `CC1(C)CN(C(=O)Nc2cnc(-n3nccn3)c(C(F)(F)F)c2)c2cccc(Br)c2O1` [Example 23, N-(6-(2H-1,2,3-Triazol-2-yl)-5-(trifluoromethyl)pyridin-3-yl)-8-bromo-2,2-dimethyl-2,3-dihydro-4H-benzo[b][1,4]oxazine-4-carboxamide], the IC50 in assay [1] (Homo sapiens, Jurkat, 48 h) amounted to 290 nM; on FL hMALT1 enzyme, 110 nM; in assay [2], 860 nM.

Consider `C[C@@H]1CN(C(=O)Nc2cnc(-n3nccn3)c(Cl)c2)c2cncc(Br)c2N1C` [Example 26, (R)-8-Bromo-N-(5-chloro-6-(2H-1,2,3-triazol-2-yl)pyridin-3-yl)-1.2-dimethyl-2,3-dihydropyrido[3,4-b]pyrazine-4 (1H)-carboxamide], for which the IC50 in assay [1] (Homo sapiens, Jurkat, 48 h) amounted to 1300 nM; on FL hMALT1 enzyme, 110 nM; in assay [2] it was 800 nM.

Regarding `CC1CN(C(=O)Nc2cnc(-n3nccn3)c(Cl)c2)c2cncc(Br)c2O1` (stereo not drawn) [Example 30, 8-Bromo-N-(5-chloro-6-(2H-1,2,3-triazol-2-yl)pyridin-3-yl)-2-methyl-2,3-dihydro-4H-pyrido[4,3-b][1,4]oxazine-4-carboxamide], the IC50 is 420 nM in assay [1] (Homo sapiens, Jurkat, 48 h); 1500 nM against FL hMALT1 enzyme; 1500 nM in assay [2].

Regarding `CC1(C)CN(C(=O)Nc2cnc(-n3nccn3)c(Cl)c2)c2cncc(Cl)c2O1` [Example 32, 8-Chloro-N-(5-chloro-6-(2H-1,2,3-triazol-2-yl)pyridin-3-yl)-2,2-dimethyl-2,3-dihydro-4H-pyrido[4,3-b][1,4]oxazine-4-carboxamide], the IC50 was 1200 nM in assay [1] (Homo sapiens, Jurkat, 48 h); 120 nM on FL hMALT1 enzyme; 1800 nM in assay [2].

For `Nc1ncc2c(c1Br)OCCN2C(=O)Nc1cnc(-n2nccn2)c(Cl)c1` [Example 36, 7-Amino-8-bromo-N-(5-chloro-6-(2H-1,2,3-triazol-2-yl)pyridin-3-yl)-2,3-dihydro-4H-pyrido[4.3-b][1.4]oxazine-4-carboxamide], the IC50 turned out to be 1700 nM in assay [1] (Homo sapiens, Jurkat, 48 h) and 2200 nM on FL hMALT1 enzyme.
